From patent US7928098B2, “Therapeutic and/or preventive agents for a sleep disorder” (Kyowa Hakko Kirin Co., Ltd., priority 2005, dated 2011)

SMILES: COCC(=O)c1sc(NC(=O)c2ccc(Cl)nc2)nc1-c1ccco1 [Compound 310, 2-Chloro-N-[4-(2-furyl)-5-(methoxyacetyl)thiazol-2-yl]pyridine-5-carboxamide]
- melting point: 174 to 183 °C

SMILES: CC(C)(O)C(=O)Nc1nc(-c2ccco2)c(C(=O)c2ccccc2)s1 [Compound 45, N-[5-Benzoyl-4-(2-furyl)thiazol-2-yl]-2-hydroxy-2-methylpropanamide]
- melting point: 153 to 154 °C

SMILES: Cc1ccc(C(=O)Nc2nc(-c3ccco3)c(C(=O)c3ccccn3)s2)cn1 [Compound 130, N-[4-(2-Furyl)-5-(pyridin-2-ylcarbonyl)thiazol-2-yl]-2-methylpyridine-5-carboxamide]
- melting point: 210 to 215 °C

SMILES: CCn1ccc(C(=O)c2sc(NC(=O)c3ccncc3)nc2-c2ccco2)c1 [Compound 262, N-[5-(1-Ethylpyrrol-3-ylcarbonyl)-4-(2-furyl)thiazol-2-yl]pyridine-4-carboxamide]
- melting point: 127 to 134 °C

SMILES: COCC(=O)c1sc(NC(=O)c2ccc(F)cc2)nc1-c1ccco1 [Compound 311, 4-Fluoro-N-[4-(2-furyl)-5-(methoxyacetyl)thiazol-2-yl]benzamide]
- melting point: 166 to 167 °C

SMILES: O=C(Nc1nc(-c2ccco2)c(C(=O)C2CCOCC2)s1)c1ccc2c(c1)OC(F)(F)O2 [Compound 403, 2,2-Difluoro-N-[4-(2-furyl)-5-(tetrahydropyran-4-ylcarbonyl)thiazol-2-yl]-1,3-benzodioxol-5-carboxamide]
- melting point: 124 to 129 °C

SMILES: Cc1ccnc(C(=O)c2sc(NC(=O)c3ccncc3)nc2-c2ccco2)c1 [Compound 203, N-[4-(2-Furyl)-5-(4-methylpyridin-2-ylcarbonyl)thiazol-2-yl]pyridine-4-carboxamide]
- melting point: 240 to 245 °C

SMILES: Cc1cnc(C(=O)c2sc(NC(=O)c3ccncc3)nc2-c2ccco2)s1 [Compound 256, N-[4-(2-Furyl)-5-(5-methylthiazol-2-ylcarbonyl)thiazol-2-yl]pyridine-4-carboxamide]
- melting point: 275 to 277 °C (dec.)

SMILES: O=C(CN1CCCC1)Nc1nc(-c2ccco2)c(C(=O)C2CCOCC2)s1 [Compound 441, N-[4-(2-Furyl)-5-(tetrahydropyran-4-ylcarbonyl)thiazol-2-yl]-2-(1-pyrrolidinyl)acetamide]
- melting point: 115 to 117 °C

SMILES: O=C(Nc1nc(-c2ccco2)c(C(=O)C2CCOCC2)s1)c1cccc(OC(F)(F)F)c1 [Compound 381, N-[4-(2-Furyl)-5-(tetrahydropyran-4-ylcarbonyl)thiazol-2-yl]-3-(trifluoromethoxy)benzamide]
- melting point: 197 to 198 °C

SMILES: Cc1ncccc1C(=O)Nc1nc(-c2ccco2)c(C(=O)c2ccccn2)s1 [Compound 129, N-[4-(2-Furyl)-5-(pyridin-2-ylcarbonyl)thiazol-2-yl]-2-methylpyridine-3-carboxamide]
- melting point: 186 to 187 °C

SMILES: O=C(c1ccccn1)c1sc(NC(=O)C2CCOCC2)nc1-c1ccco1 [Compound 102, N-[4-(2-Furyl)-5-(pyridin-2-ylcarbonyl)thiazol-2-yl]tetrahydropyran-4-carboxamide]
- melting point: 234 to 235 °C

SMILES: O=C(Nc1nc(-c2ccco2)c(C(=O)C2CCCC2)s1)C1CC1 [Compound 339, N-[5-(Cyclopentylcarbonyl)-4-(2-furyl)thiazol-2-yl]cyclopropanecarboxamide]
- melting point: 182 to 187 °C

SMILES: Cc1cc(C(=O)c2sc(NC(=O)c3ccncc3)nc2-c2ccco2)ccn1 [Compound 239, N-[4-(2-Furyl)-5-(2-methylpyridin-4-ylcarbonyl)thiazol-2-yl]pyridine-4-carboxamide]
- melting point: 223 to 225 °C

SMILES: O=C(Nc1nc(-c2ccco2)c(C(=O)c2ccccc2)s1)c1ccnnc1 [Compound 61, N-[5-Benzoyl-4-(2-furyl)thiazol-2-yl]pyridazine-4-carboxamide]
- melting point: 225 to 248 °C

SMILES: Cn1cc(C(=O)Nc2nc(-c3ccco3)c(C(=O)C3CCOCC3)s2)cn1 [Compound 424, N-[4-(2-Furyl)-5-(tetrahydropyran-4-ylcarbonyl)thiazol-2-yl]-1-methylpyrazole-4-carboxamide]
- melting point: 243 to 247 °C

SMILES: O=C(Nc1nc(-c2ccco2)c(C(=O)c2ccccn2)s1)c1ccnc(Cl)c1 [Compound 122, 2-Chloro-N-[4-(2-furyl)-5-(pyridin-2-ylcarbonyl)thiazol-2-yl]pyridine-4-carboxamide]
- melting point: 219 to 225 °C

SMILES: N#Cc1ccccc1C(=O)Nc1nc(-c2ccco2)c(C(=O)C2CCOCC2)s1 [Compound 377, 2-Cyano-N-[4-(2-furyl)-5-(tetrahydropyran-4-ylcarbonyl)-thiazol-2-yl]benzamide]
- melting point: 221 to 224 °C

SMILES: CCOC(=O)Nc1nc(-c2ccco2)c(C(=O)c2ccccn2)s1 [Compound 158, Ethyl N-[4-(2-furyl)-5-(pyridin-2-ylcarbonyl)thiazol-2-yl]carbamate]
- melting point: 158 to 159 °C

SMILES: O=C(c1ccccn1)c1sc(NC(=O)C2CCC2)nc1-c1ccco1 [Compound 101, N-[4-(2-Furyl)-5-(pyridin-2-ylcarbonyl)thiazol-2-yl]cyclobutanecarboxamide]
- melting point: 165 to 170 °C

SMILES: O=C(Nc1nc(-c2ccco2)c(C(=O)C2CCOCC2)s1)c1ccc(CN2CCOCC2)cc1 [Compound 387, N-[4-(2-Furyl)-5-(tetrahydropyran-4-ylcarbonyl)thiazol-2-yl]-4-(morpholinomethyl)benzamide]
- melting point: 92 to 96 °C

SMILES: O=C(CN1CCN(c2ccccc2)CC1)Nc1nc(-c2ccco2)c(C(=O)c2ccccn2)s1 [Compound 184, N-[4-(2-Furyl)-5-(pyridin-2-ylcarbonyl)thiazol-2-yl]-2-(4-phenylpiperazin-1-yl)acetamide]
- melting point: 203 to 204 °C

SMILES: N#Cc1ccc(C(=O)Nc2nc(-c3ccco3)c(C(=O)c3cccnc3)s2)cc1 [Compound 213, 4-Cyano-N-[4-(2-furyl)-5-(pyridin-3-ylcarbonyl)thiazol-2-yl]benzamide]
- melting point: 288 to 290 °C

SMILES: O=C(Nc1nc(-c2ccco2)c(C(=O)C2CCOCC2)s1)c1cnn(-c2ccccc2)c1 [Compound 426, N-[4-(2-Furyl)-5-(tetrahydropyran-4-ylcarbonyl)thiazol-2-yl]-1-phenylpyrazole-4-carboxamide]
- melting point: 217 to 220 °C

SMILES: O=C(c1ccccn1)c1sc(NC(=O)N2CCOCC2)nc1-c1ccco1 [Compound 164, N-[4-(2-Furyl)-5-(pyridin-2-ylcarbonyl)thiazol-2-yl]morpholine-4-carboxamide]
- melting point: 144 to 145 °C

SMILES: CC(C)C(=O)c1sc(N)nc1-c1ccco1 [Compound 299, 2-Amino-4-(2-furyl)thiazol-5-yl isopropyl ketone]
- melting point: 195 to 199 °C

SMILES: O=C(c1ccccn1)c1sc(NC(=O)N2CCCCC2)nc1-c1ccco1 [Compound 165, N-[4-(2-Furyl)-5-(pyridin-2-ylcarbonyl)thiazol-2-yl]piperidine-1-carboxamide]
- melting point: 182 to 185 °C

SMILES: CCOC(=O)Nc1nc(-c2ccco2)c(C(=O)C2CCOCC2)s1 [Compound 486, Ethyl N-[4-(2-furyl)-5-(tetrahydropyran-4-ylcarbonyl)thiazol-2-yl]carbamate]
- melting point: 152 to 153 °C

SMILES: O=C(Nc1nc(-c2ccco2)c(C(=O)C2CCOCC2)s1)c1cccc(Cl)c1 [Compound 375, 3-Chloro-N-[4-(2-furyl)-5-(tetrahydropyran-4-ylcarbonyl)-thiazol-2-yl]benzamide]
- melting point: 210 to 212 °C

SMILES: COc1cccc(C(=O)Nc2nc(-c3ccco3)c(C(=O)c3ccccn3)s2)c1 [Compound 109, N-[4-(2-Furyl)-5-(pyridin-2-ylcarbonyl)thiazol-2-yl]-3-methoxybenzamide]
- melting point: 165 to 166 °C

SMILES: CCCC(=O)c1sc(NC(=O)C2CC2)nc1-c1ccco1 [Compound 292, N-[5-Butyryl-4-(2-furyl)thiazol-2-yl]cyclopropanecarboxamide]
- melting point: 170 to 172 °C

SMILES: COC1CCN(CC(=O)Nc2nc(-c3ccco3)c(C(=O)c3ccccn3)s2)CC1.Cl
- melting point: 220 to 232 °C (dec.)

SMILES: O=C(Nc1nc(-c2ccco2)c(C(=O)c2nccs2)s1)c1ccncc1 [Compound 255, N-[4-(2-Furyl)-5-(thiazol-2-ylcarbonyl)thiazol-2-yl]pyridine-4-carboxamide]
- melting point: 228 to 240 °C

SMILES: CCC(=O)c1sc(NC(=O)c2ccncc2)nc1-c1ccco1 [Compound 288, N-[4-(2-Furyl)-5-propionylthiazol-2-yl]pyridine-4-carboxamide]
- melting point: 225 to 240 °C (dec.)

SMILES: CCn1cc(C(=O)c2sc(NC(=O)c3ccncc3)nc2-c2ccco2)ccc1=O [Compound 269, N-[5-(1-Ethyl-2-oxo-1,2-dihydropyridin-5-ylcarbonyl)-4-(2-furyl)thiazol-2-yl]pyridine-4-carboxamide]
- melting point: 295 to 296 °C

SMILES: O=C(Nc1nc(-c2ccco2)c(C(=O)c2ccccn2)s1)c1ccnnc1 [Compound 135, N-[4-(2-Furyl)-5-(pyridin-2-ylcarbonyl)thiazol-2-yl]pyridazine-4-carboxamide]
- melting point: 270 to 274 °C

SMILES: Cc1ncccc1C(=O)c1sc(NC(=O)c2ccncc2)nc1-c1ccco1 [Compound 217, N-[4-(2-Furyl)-5-(2-methylpyridin-3-ylcarbonyl)thiazol-2-yl]pyridine-4-carboxamide]
- melting point: 230 to 234 °C

SMILES: O=C(Nc1nc(-c2ccco2)c(C(=O)c2ccco2)s1)c1ccncc1 [Compound 249, N-[4-(Furan-2-yl)-5-(furan-2-ylcarbonyl)thiazol-2-yl]pyridine-4-carboxamide]
- melting point: 245 to 248 °C

SMILES: CN1CCCN(CC(=O)Nc2nc(-c3ccco3)c(C(=O)C3CCOCC3)s2)CC1 [Compound 481, N-[4-(2-Furyl)-5-(tetrahydropyran-4-ylcarbonyl)thiazol-2-yl]-2-(4-methyl-1,4-diazepan-1-yl)acetamide]
- melting point: 94 to 96 °C

SMILES: O=C(CN1CCC(N2CCOCC2)CC1)Nc1nc(-c2ccco2)c(C(=O)C2CCOCC2)s1 [Compound 458, N-[4-(2-Furyl)-5-(tetrahydropyran-4-ylcarbonyl)thiazol-2-yl]-2-(4-morpholinopiperidino)acetamide]
- melting point: 193 to 195 °C

SMILES: CN(C)c1cccc(C(=O)Nc2nc(-c3ccco3)c(C(=O)C3CCOCC3)s2)c1 [Compound 369, 3-(Dimethylamino)-N-[4-(2-furyl)-5-(tetrahydropyran-4-ylcarbonyl)thiazol-2-yl]benzamide]
- melting point: 239 to 243 °C
